The values that follow come from patent publication EP4353084A1, “BIOPESTICIDE COMPOSITION WITH SYNERGISTIC EFFECT AND METHOD FOR COMBATING AND CONTROLLING PESTS” (Kimitec Biogroup S.L, priority 2022, dated 2024).

Holding throughout (assay type): in vivo
The test system of series [1] is Tetranychus urticae. The experiment in a line: In planta settling inhibition (Whole Plant Direct Method). Particulars: 24 hours. On the procedure:
The objective of this bioassay is to evaluate the effect of different doses of individual active ingredients and biopesticide composition on the settling behavior of Tetranychus urticae. It's based on the preference of mite adults for treated and non-treated bean (Phaseolus vulgaris) plants located in the same petri dishes (in vitro assays) or entomological cages (in planta assays): The experiments were conducted in bugdorm®-type net cages (60x60x60 cm, 140 microns mesh) (Figure 4). By putting inside this, 14 cm diameter pots with two similar bean plants in two-leaf stage in each pot (Figure 5). One of the plants was sprayed with the composition of the present invention and the other with the control and allowed to dry for 30 minutes. Adult mites (up to 100) were released at the base of stems between the two plants (treated and untreated), so that they had to choose between two alternatives or remain walking and/or resting on the cage walk. A total of 5 cages for each treatment (four plant each) (Figure 6) and control were used in each experiment and replicated 3 times in different days. Closed and labeled cages were incubated in a "walk-in" type growth chamber at 25 (±2) °C, 60% relative humidity (RH), and a photoperiod of 16 h:8 h light: dark. After 24 hours the number of adults settled in treated and non-treated plants and the number of laid eggs were recorded on both side of blade in each leaf. Number of mites and eggs were counted under a stereomicroscope. Settling inhibition index (%SI) was calculated according to the following formula: %SI = [1−((T)/(C))] × 100 [formula] T= Settling of treated plants; C= Settling of control plants. Oviposition inhibition index (%10) was calculated according to the following formula: %IO = [1−((T)/(C))] × 100 [formula] T= laid eggs on treated plants; C= laid eggs on control plants. Means of %SI and %10 were analyzed for significance by the non-parametric Wilcoxon signed-rank test (p<0.05). An asterisk (*) means statistically significancy. Table 6. In planta antifeedant effects against Tetranychus urticae

For series [2], the system named is Tetranychus urticae. The experiment in a line: In vitro settling inhibition (leaf disc painting method). Particulars: 24 h. On the procedure:
The objective of this bioassay is to evaluate the effect of different doses of individual active ingredients and biopesticide composition on the settling behavior of Tetranychus urticae. It's based on the preference of mite adults for treated and non-treated bean (Phaseolus vulgaris) plants located in the same petri dishes (in vitro assays) or entomological cages (in planta assays): Tests were conducted in plastic net petri dishes (5cm diameter) (Figure 3). The bottom of the petri dish was covered with a thin (0.4 mm) layer of agar 12% (w/v) (a). After 2 minutes to cool agar, bean (Phaseolus vulgaris) leaf discs (2 cm^2) were placed on the fresh agar surface (upper side up) and allowed to dry for 30 minutes. It provides a support and disc hydration along the experiment (24 h). Half of the discs were treated (T) with 20 µl of the individually active ingredients and the blend and the other half with water containing 2% TWEEN® 80 that was used as control (C). Fifteen Tetranychus urticae adults were placed on the middle of treated and untreated leaf discs and allowed to feed (24 h) in a compact-type growth chamber at 25 (±2) °C, 60% relative humidity, and a photoperiod of 16 h:8 h light: dark. A total of 10 petri dishes for each treatment were used in each experiment and temporarily replicated 3 times along the week. Table 5. In vitro antifeedant effects against Tetranychus urticae Settling inhibition index (%SI) was calculated according to the following formula: %SI = [1−((T)/(C))] × 100 [formula] T= Settling of treated plants; C= Settling of control plants.

Series [3] has as its system Tetranychus urticae. The experiment in a line: Contact mortality (Leaf Disc Method). Particulars: for Mortality (%M): adults, 24 h, Abbott corrected. Here is the method:
This bioassay is to evaluate the physical effect of different doses on the mortality of Tetranychus urticae (red spider mite) adults in a short/medium-term (0-24 hours) by topical application.
Tests were conducted in plastic net petri dishes (5 cm diameter) (Figure 2). (a) The bottom of the petri dish was covered with a thin (0.4 mm) layer of agar 12% (w/v). After 2 minutes, to cool agar, (b) bean (Phaseolus vulgaris) leaf discs (2 cm^2) were placed on the fresh agar surface (upper side up) and allowed to dry for 30 minutes. This provides a support and disc hydration along the experiment (24 h). Fifteen (c) Tetranychus urticae adults were placed on the upper surface of a bean leaf disc with a fine entomological brush. The mites were allowed to acclimate for 30 minutes. A total of 10 petri dishes for each treatment (individual active ingredients, blend of active ingredients, positive and negative controls) were used in each experiment and temporarily replicated 3 times along the week.
Each treatment (different doses of individual active ingredients, blend of active ingredients, and controls) was sprayed (50 µl) two times on the settled spider mites, covering all the disc surface in each petri dishes using a micro-atomizer. Closed and labeled bottles were incubated in a compact-type growth chamber at 25 (±2) °C, 60% relative humidity (RH), and a photoperiod of 16 h:8 h light: dark. Numbers of live and dead mite adults were counted at 24 h post-treatment. Mite adults were considered dead if no movement was apparent after probing with the tip of a fine brush under stereoscopic magnifying glass. Mortality percentage was calculated in treatment and control groups. If the mortality in negative control is above 20%, the test was discarded. When control mortality was greater than 5% but less than 20%, the observed mortality (%M) was corrected using Abbott's formula (Abbott, 1925): % Corrected M = (X−Y)/(100−Y)x [formula]
Where: X= Mortality (%) in the treatment; Y= Mortality (%) in the control
Means of %M were compared using a one-way analysis of variance (ANOVA, p<0.05) and LSD-test as a post hoc test to verify significant differences between single treatments using Statgraphics Centurion XVII software. When nonnormality in the data was detected, an additional Kruskal-Wallis test was conducted, and Box-and-Whisker Plot (Median Notch) was presented. Each active ingredient and the blend were tested in a dose-response experiment (3-5 serial dilutions) to calculate their relative potency (EC50 and/or EC90) from a linear regression analysis (%M on Log-dose). In addition, death mite adults were carefully observed under stereoscopic magnifying glass to differentiate the mechanisms of action involved in contact mortality such as: Blocking tracheal insect spiracles (suffocation) and effect on insect cuticle and/or membranes (osmotic shock). Table 4. Contact mortality of test items against Tetranychus urticae

The subject of series [4] is Tetranychus urticae. The experiment in a line: Knock-down bioassays. Particulars: 1% w/v; mortality assessed at 1, 2, 4, 6, 8, 16 and 24 hours after spraying; Figures 7 and 8. Here is the method: Furthermore, the composition of the present invention was tested to evaluate its knock-down effect in the contact mortality assays of individual active ingredients and blend. Mortality, as in bioassay of contact mortality, was assessed at 1, 2, 4, 6, 8, 16 and 24 hours after spraying the blend of Eucalyptus oil and geraniol. In the case of individual active ingredients (Eucalyptus oil and geraniol), we used the dose that give major activity in contact (topical) assays 1% w/v Table 4. Blend was prepared at 0.06:0.06 %w/v (Eucalyptus oil: geraniol) for the bioassays with the biopesticide composition.
The same behavior was stated in the case of biopesticide composition (Figure 9). Abrupt curves showing high mortalities within oner hour are indicative of neurotoxic effects. However, smoothed curves could be used as indicative of non-toxic mode of action.

SMILES strings stand for the structures. “And” between values parts separate entries of the source, which are not always exact repeats. Equal values may be shown once. Marks after values point to notes of the source that are not given here.

Turning to `CC(C)=CCC/C(C)=C/CO` [geraniol], the “Oviposition inhibition (%IO)” value in series [1] (Dose 0.10 % (w/v)) is given as 44.3 ± 3.7* %; in series [1] (Dose 0.50 % (w/v)), 72.1 ± 3.1* %; in series [1] (Dose 1.0 % (w/v)), 81.1 ± 2.1* %. Moreover, the “Settling inhibition (%SI)” value in series [1] (Dose 0.10 % (w/v)) is recorded as 57.7 ± 5.3%; in series [1] (Dose 0.50 % (w/v)) it was 73.2 ± 2.6%; in series [1] (Dose 1.0 % (w/v)), 76.1 ± 2.7%; in series [2] (Dose 0.02 % (w/v)), 31.1 ± 4.4 %; in series [2] (Dose 0.05 % (w/v)), 47.5 ± 4.6 %; in series [2] (Dose 0.10 % (w/v)), 70.6%. The “Settling inhibition (%SI)” value is recorded as 70.6 ± 3.0 % in series [2] (Dose 0.10 % (w/v), listed as Geraniol); 75.3 ± 3.4 % in series [2] (Dose 0.50 % (w/v)); 82.9 ± 2.5 % in series [2] (Dose 1.0 % (w/v)). Further, the “Mortality (%M)” value is 18,1% and 18.1 ± 2.4% and 18.1 ± 2.4 ^a % in series [3] (Dose 0.10 % (w/v)); 28.2% and 28.2 ± 3.2% and 28.2 ± 3.2 ^b % in series [3] (Dose 0.50 % (w/v)); 43.9 ± 2.5% and 43.9 ± 2.5 ^c % in series [3] (Dose 1.0 % (w/v)). In addition, the “EC50 (%, w/v)” value in series [3] (contact mortality, linear regression %M on Log-dose, limits in brackets) was “EC50 (%, w/v) = 2.44 (1.24, 4.75)”. Moreover, the “concentration given 50% of contact mortality” value in series [3] (in vivo) is 2.44%. The “Knock-down effect (knockdown curve)” value in series [4] was “slow and gradual increase in the mortality along the time”.
In the case of `Cc1ccc(C(C)C)cc1O` [Carvacrol], the “Mortality (%M)” value in series [3] (Dose 0.01 % (w/v)) is given as 38.9 ± 5.1%; in series [3] (Dose 0.05 % (w/v)), 47.1 ± 7.2%; in series [3] (Dose 0.10 % (w/v)) it was 66.8 ± 5.3%; in series [3] (Dose 1.0 % (w/v)) it was 100.0 ± 0.0%. The “concentration given 80% of contact mortality” value in series [3] (EC80) turned out to be 0.55%. In series [3] (Table 12, contact mortality, limits in brackets, text calls it EC80), the “EC80 (%, w/v)” value is listed as “EC50 (%, w/v) = 0.55 (0.42, 0.8)”.
